Counter-ions that a name gives are not always drawn.
Tests used:
[1] = in vivo; parameters: species or system male Wistar rats; conditions: rat, topical or ocular; for AUC(0-t) at 36 h: AUC (0-36 hours)
From the text: In Table 1, the results obtained are shown. The calcium salts of the anti-inflammatory drugs in the ointment were absorbed to a much greater degree than the indomethacin (Rp. 1).

[2] = test system: carrageenan-induced paw edema; assay: Carrageenan-induced edema in hindpaw of rat; format: in vivo, male Wistar rats; conditions: 0.14 g gel ointment on abdominal skin 6 h before carrageenan
Procedure: (§1) Experimental carrageenan edema was induced in groups of six male Wistar rats weighing 150-160 g. […] The gel without the drug was similarly applied to the control group. The treated area was immediately covered by aluminum foil and adhesive tape. Six hours later, 1% carrageenan solution was injected subcutaneously into the sole of the right hindpaw. The volumes of both hindpaw were measured hourly using a plethysmometer and the edema volume was calculated from the difference between the injected and non-injected paws. FIG. 3 indicates the effect on the carrageenan-induced paw edema of these ointments applied topically.

[3] = test system: shaved back skin; parameters: species or system male rabbits; conditions: rabbit, in vivo
Procedure: The evaluation of skin reactions was done by the erythema and edema scores 24 and 72 hours after application.

[4] = Absorption of the active ingredient from other bases or with other promoters; conditions: calcium thioglycolate as absorption promoter
[5] = Plasma concentration of indomethacin during multiple percutaneous dosing of ointment to rats; format: in vivo, male Wistar rats; conditions: 0.14 g per 1.0×1.0 cm
Procedure: The hair of the abdominal area of male Wistar rats weighing 250-300 g was removed in the same manner as described in Example 6. […] The rats were fixed in the Bollman cages for 24 hours. The ointment remained in contact with the skin for 24 hours, and then the unabsorbed ointment was wiped off. Subsequently, second and third applications of the ointment (0.14 g, 1.0×1.0 cm area) were made at different positions on the abdomen similar to the first application. The drug concentrations were determined by the same procedure as described in Example 6. FIG. 2 depicts the plasma indomethacin concentrations after the topical application of these ointments.

[6] = test system: adjuvant arthritis induced with M. butyricum; assay: Adjuvant arthritis induced with M. butyricum; format: in vivo, male Wistar rats; conditions: for Inhibition: adjuvant arthritis; for Inhibition / Foot volume: day 16, mean ± S.D. of 6 rats; for Foot volume: 0.14 g gel ointment every other day from day 11 to 15, *p <0.05 vs control
Procedure: as §1
M. butyricum (Difco Lab., USA) suspended in paraffin oil was injected into the sole of right hindpaw of male Wistar rats weighing 150-160 g. […] The edema volumes were calculated by measuring the volumes of both hindpaws on day 16, according to the same procedure as described in Example 9.

Structure (SMILES) | AUC(0-t) at 36 h [1] [µg·h/mL] | erythema produced by the ointment [3] | irritation produced by the ointment [3] | Bioavailability [1] [%] | AUC (0-36 hours) [1] [µg·h/mL] | Inhibition [6] [%] | Foot volume [6] [mL] | other results
O=C(O)COc1nn(Cc2ccccc2)c2ccccc12 [Bendazac calcium] | 460 ± 31.5 |  |  |  |  |  |  | 
O=C(O)Cc1ccccc1Nc1c(Cl)cccc1Cl [Diclofenac calcium] | 465 ± 32.4 |  |  |  |  |  |  | 
O=C(O)c1ccccc1Nc1cccc(C(F)(F)F)c1 [Flufenamate calcium] | 463 ± 18.9 |  |  |  |  |  |  | 
COc1ccc2c(c1)c(CC(=O)O)c(C)n2C(=O)c1ccc(Cl)cc1 [Indomethacin calcium, Calcium salt of indomethacin] |  | only slight erythema | nearly negligible | 70.3 ± 4.1 | 473.4 ± 16.5 | 51.0 ± 7.6 | 2.38 ± 0.12 | inhibitory effect on carrageenan-induced paw edema [2]: significantly higher inhibitory effect; absorption of the active ingredient on addition of calcium thioglycolate [4]: dramatically decrease the absorption; absorption through the skin compared with indomethacin ([5]; three 24 h applications): readily and quickly absorbed through the skin compared with indomethacin; plasma levels after application of the gel ointment ([5]; multiple dosing, vs indomethacin ointment): much higher plasma levels; inhibitory effect on adjuvant arthritis ([6]; compared with indomethacin ointment): significant inhibitory effect, to the same extent as the indomethacin ointment
COc1ccc2c(c1)c(CC(=O)O)c(C)n2C(=O)c1ccc(Cl)cc1 [Indomethacin, indomethacin, reference compound] |  | only slight erythema | nearly negligible | 7.3 ± 1.4 | 50.4 ± 7.8 | 55.4 ± 10.5 | 2.32 ± 0.16 | 
Cc1cccc(Nc2ccccc2C(=O)O)c1C [Mefenamate calcium, Calcium mefenamate] | 470 ± 40.5 |  |  |  |  |  |  | 

— patent US4873081A, “Percutaneous absorption preparation” (priority 1986, dated 1989)
